Experiments:
Format in all cases: in vivo
[1] = tested on: termite (Reticulitermes flavipes) workers; assay: Test to Determine Termite Mortality by Applications of Combinations of Bifenthrin and Clothianadin (soil column in glass tube)
Protocol: (§1) The compositions of the present invention were tested for termiticide activity in the following manner:
Test compositions made up of TALSTAR® TERMITICIDE/INSECTICIDE and a wettable powder of clothianadin in distilled water were prepared that provided appropriate rates of application of combinations of bifenthrin and clothianadin, as well as bifenthrin and clothianadin alone.
(§2) Glass tubing, 13 mm in diameter, was then cut into 20 cm sections in sufficient quantity to conduct the test. Each […] section of tubing was marked at 5 cm, 8 cm, and 18 cm distances from one end of the tube designated as the bottom. Each section of tubing was packed with a sandy soil (3% wt/wt moisture content) by first placing a section of a 1 cm diameter wooden dowel into the bottom of the glass tube up to the 8 cm marking, then introducing approximately 2 cm of soil into the other end of the tube designated as the top. The soil was then gently packed into the tube from the top using a second section of the 1 cm diameter wooden dowel. The process was repeated using 2 cm aliquots of soil until the soil level was adjacent to the 18 cm marking, thereby providing a column of soil 10 cm in height. An agar plug, which was formed in a section of the 13 mm diameter glass tubing of the type used to conduct these tests, was cut into 3 cm sections. A 3 cm section of agar was then gently pushed into the bottom of each tube containing the soil until the agar plug firmly touched the soil at the 8 cm marking, thereby creating a 5 cm void in the bottom of each section of tubing. Following placement of the agar plugs in each section of tubing; two sections of applicator sticks cut in 6 cm lengths were inserted into the bottom end of each tube thereby forcing about 1 cm of each stick into the agar plug to hold the agar plug in place. Plastic caps, with an inside diameter of 13 mm and holes drilled in their centers, were placed on the bottom ends of each of the sections of tubing. A sharpened applicator stick was then inserted into the hole in each plastic cap through the agar plug to the intersection of the agar plug and the soil. The applicator stick was then gently removed in a rotating manner to provide a means for a free flow of liquid through the soil. Each section of tubing was then stood upright, and 0.5 mL aliquots of each suspension of bifenthrin, clothianadin or combinations thereof, as prepared above, were pipetted onto the top of the soil. Upon application of the test suspensions the top of each section of tubing was covered with a small piece of aluminum foil. The tubes were then allowed to stand for about 20 hours to allow movement of the termiticide(s) downward into the soil. After this time a plastic cap of 13 mm inside diameter was placed on the top of each section of tubing. The plastic caps with the holes drilled in their centers were removed from the bottom of each section of tubing, and a piece of 0.5 cm×4 cm filter paper was then placed between the two sections of applicator sticks. Fifty termite (Reticulitermes flavipes) workers were then inserted into the 5 cm void in the bottom of each section of tubing. New plastic caps without holes drilled in their centers were placed on the bottom of each section of tubing. The sections of tubing were then stored in an upright position, with the termites located below the soil. Termite mortality was measured at 1 hour, 2 hours, 1 day, 2 days and 7 days after treatment.

[2] = tested on: termite (Reticulitermes flavipes) workers; assay: Test to Determine Termite Mortality by Applications of Combinations of Bifenthrin and Imidacloprid (soil column in glass tube)
Protocol: as §1
Test compositions made up of TALSTAR® TERMITICIDE/INSECTICIDE and a wettable powder of imidacloprid in distilled water were prepared that provided appropriate rates of application of combinations of bifenthrin and imidacloprid, as well as bifenthrin and imidacloprid alone.
as §2, with “imidacloprid” for “clothianadin”

[3] = tested on: termite (Reticulitermes flavipes) workers; assay: Test to Determine Termite Mortality by Applications of Combinations of Bifenthrin and Thiamethoxam (soil column in glass tube)
Protocol: as §1
Test compositions made up of TALSTAR® TERMITICIDE/INSECTICIDE and a wettable powder of thiamethoxam in distilled water were prepared that provided appropriate rates of application of combinations of bifenthrin and thiamethoxam, as well as bifenthrin and thiamethoxam alone.
as §2, with “thiamethoxam” for “clothianadin”

[4] = Rate of Appln. 10 PPM (0.001 % by weight)
[5] = Rate of Appln. 50 PPM (0.005 % by weight)

## Cc1c(COC(=O)[C@@H]2[C@H](/C=C(\Cl)C(F)(F)F)C2(C)C)cccc1-c1ccccc1 (racemic) [A, bifenthrin]
[1]; [4]
  Mortality Rate @ 1 Day: 13%
  Mortality Rate @ 1 Hour: 0%
  Mortality Rate @ 2 Days: 24%
  Mortality Rate @ 2 Hours: 0%
  Mortality Rate @ 7 Days: 95%
[1]; [5]
  Mortality Rate @ 1 Day: 21%
  Mortality Rate @ 1 Hour: 0%
  Mortality Rate @ 2 Days: 78%
  Mortality Rate @ 2 Hours: 0%
  Mortality Rate @ 7 Days: 100%
[2]; [4]
  Mortality Rate @ 1 Day: 13%
  Mortality Rate @ 1 Hour: 0%
  Mortality Rate @ 2 Days: 24%
  Mortality Rate @ 2 Hours: 0%
  Mortality Rate @ 7 Days: 95%
[2]; [5]
  Mortality Rate @ 1 Day: 21%
  Mortality Rate @ 1 Hour: 0%
  Mortality Rate @ 2 Days: 78%
  Mortality Rate @ 2 Hours: 0%
  Mortality Rate @ 7 Days: 100%
[3]; [4]
  Mortality Rate @ 1 Day: 3%
  Mortality Rate @ 1 Hour: 0%
  Mortality Rate @ 2 Days: 5%
  Mortality Rate @ 2 Hours: 0%
  Mortality Rate @ 7 Days: 100%
[3]; [5]
  Mortality Rate @ 1 Day: 10%
  Mortality Rate @ 1 Hour: 0%
  Mortality Rate @ 2 Days: 65%
  Mortality Rate @ 2 Hours: 0%
  Mortality Rate @ 7 Days: 100%

From patent US20180249714A1, “Liquid Termiticide Compositions of Pyrethroids and Neonicitinoids” (FMC Corporation, priority 2004, published 2018)
